According to patent publication US12410160B2 (Gilead Sciences, Inc., priority 2021, dated 2025):
Where two headings read alike, the source gives them in different places.

Columns and labels:
human KHK-C = human KHK-C (Homo sapiens (Human), UniProt P50053); assay: KHK Biochemical Assay (IC50), ADP-Glo, KHK-C; settings: average of at least two separate assays
How it was run: (§1)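 Luminescent ADP-Glo read-out of ADP made by His-tagged KHK (BL21 (DE3) expression, Ni-NTA). Enzyme and compound sat together 30 min before ATP/fructose addition, then reacted 4 h at RT in Hepes pH 7.4 buffer with KCl, MgCl2, Triton-X. Quench 1 h, detection 1 h.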

human KHK-A = human KHK-A (Homo sapiens (Human), UniProt P50053); assay: KHK Biochemical Assay (IC50), ADP-Glo, KHK-A; settings: average of at least two separate assays
How it was run: as §1

HepG2 cells = assay: F1P Cell-Based Assay (EC50), 13C6-fructose-1-phosphate in HepG2 cells (cell culture medium or 50% human plasma)
[1] = target: KHK-C expressed in NRK-52E cells (Homo sapiens (Human), UniProt P50053); assay: KHK-C Cell-based Assay (EC50), NRK CTG, fructose-mediated ATP-depletion
[2] = Homo sapiens, HepG2, HepG2 cells, 50% human plasma, read-out: F1P 50% HP EC50
[3] = Homo sapiens, HepG2, read-out: F1P 10% FBS EC50, HepG2 cells, cell culture medium (10% FBS)

Chain of human KHK-A (P50053 other isoform, or with tags, fused parts or gaps): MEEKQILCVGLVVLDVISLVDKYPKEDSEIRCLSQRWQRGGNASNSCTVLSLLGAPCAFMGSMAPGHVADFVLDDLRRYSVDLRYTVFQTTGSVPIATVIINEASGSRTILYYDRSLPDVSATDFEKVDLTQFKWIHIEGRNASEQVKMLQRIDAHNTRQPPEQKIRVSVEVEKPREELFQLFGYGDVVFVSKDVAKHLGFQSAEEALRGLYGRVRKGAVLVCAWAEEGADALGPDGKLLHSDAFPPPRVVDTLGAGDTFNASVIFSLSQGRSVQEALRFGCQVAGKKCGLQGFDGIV
Chain of KHK-C expressed in NRK-52E cells (P50053 whole entry): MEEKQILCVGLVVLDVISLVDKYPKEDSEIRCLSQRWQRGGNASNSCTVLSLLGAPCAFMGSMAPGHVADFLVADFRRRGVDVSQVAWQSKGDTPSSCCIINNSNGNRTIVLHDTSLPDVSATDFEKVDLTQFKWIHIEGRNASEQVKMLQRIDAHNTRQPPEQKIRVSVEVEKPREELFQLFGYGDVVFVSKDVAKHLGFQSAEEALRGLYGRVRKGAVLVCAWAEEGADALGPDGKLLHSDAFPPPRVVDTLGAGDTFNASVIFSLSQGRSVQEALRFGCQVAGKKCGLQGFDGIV
Chain of human KHK-C (P50053 whole entry): as above

| Structure (SMILES) | IC50 (human KHK-C) | IC50 (human KHK-A) | EC50 (HepG2 cells; [2]) | EC50 (HepG2 cells; [3]) | EC50 [1] | IC50 (human KHK-C; ADP-Glo) | IC50 (human KHK-A; ADP-Glo) | EC50 (HepG2 cells; HepG2 cells, 50% human plasma, read-out: F1P 50% HP EC50) | EC50 (HepG2 cells; read-out: F1P 10% FBS EC50, HepG2 cells, cell culture medium (10% FBS)) | EC50 ([1]; read-out: NRK CTG EC50, NRK-52E cells, Cell-Titer Glo, 25 mM fructose) |
| --- | --- | --- | --- | --- | --- | --- | --- | --- | --- | --- |
| C[C@H]1[C@H](O)CN1c1nc(-c2ccc3c(c2)CC[C@]32NC(=O)N(C)C2=O)c2c(n1)C(F)(F)CC2 [Example 488, (58)-5′-[7,7-difluoro-2-[(2S,3R)-3-hydroxy-2-methyl-azetidin-1-yl]-5,6-dihydrocyclopenta[d]pyrimidin-4-yl]-3-methyl-spiro[imidazolidine-5,1′-indane]-2,4-dione] | 0.1 nM | 10.6 nM | 44.4 nM | 28.7 nM | 4.1 nM |  |  |  |  |  |
| C[C@H]1[C@H](O)CN1c1nc(-c2ccc3c(c2)CC[C@]32NC(=O)N(CCO)C2=O)c2c(n1)C(F)(F)CC2 [Example 686, (58)-5′-[7,7-difluoro-2-[(2S,3R)-3-hydroxy-2-methyl-azetidin-1-yl]-5,6-dihydrocyclopenta[d]pyrimidin-4-yl]-3-(2-hydroxyethyl)spiro[imidazolidine-5,1′-indane]-2,4-dione] | 0.1 nM | 16.7 nM | 71 nM | 67.8 nM | 6.4 nM |  |  |  |  |  |
| COc1ccc(-c2nc(N3C[C@@H](F)[C@@H]3C)nc3c2CCC3(F)F)cc1[S@@](C)(=N)=O [Example 561, (S)-(5-(7,7-difluoro-2-((2S,3R)-3-fluoro-2-methylazetidin-1-yl)-6,7-dihydro-5H-cyclopenta[d]pyrimidin-4-yl)-2-methoxyphenyl)(imino)(methyl)-λ^6-sulfanone] | 1.1 nM | 0.2 nM | 24.6 nM | 3.5 nM | 8 nM |  |  |  |  |  |
| Cc1ccc(-c2nc(N3C[C@@H](O)[C@@H]3C)nc3c2CCC3(F)F)cc1S(C)(=N)=O (stereo partly drawn) [Example 718, (5-(7,7-difluoro-2-((2S,3R)-3-hydroxy-2-methylazetidin-1-yl)-6,7-dihydro-5H-cyclopenta[d]pyrimidin-4-yl)-2-methylphenyl)(imino)(methyl)-λ^6-sulfanone] | 4.2 nM | 5.1 nM | 23.7 nM | 11.5 nM | 17.6 nM |  |  |  |  |  |
| C[C@H]1[C@H](O)CN1c1nc(-c2ccc(OC(F)(F)F)c(S(C)(=N)=O)c2)c2c(n1)C(F)(F)CC2 (stereo partly drawn) [Example 564, (5-(7,7-difluoro-2-((2S,3R)-3-hydroxy-2-methylazetidin-1-yl)-6,7-dihydro-5H-cyclopenta[d]pyrimidin-4-yl)-2-(trifluoromethoxy)phenyl)(imino)(methyl)-λ^6-sulfanone] | 24.4 nM | 11.6 nM | 142 nM | 38.5 nM | 98.1 nM |  |  |  |  |  |
| C[C@H]1[C@H](O)CN1c1nc(-c2ccc(C#N)c(S(C)(=N)=O)c2)c2c(n1)C(F)(F)CC2 (stereo partly drawn) [Example 798] |  |  | 93.5 nM | 120 nM | > 500 nM | 51.9 nM | 70.1 nM |  |  |  |
| C[C@H]1[C@H](O)CN1c1nc(-c2ccc3c(c2)CC[C@@]32COCC(=O)N2)c2c(n1)C(F)(F)CC2 (single isomer, unassigned) [Example 549] | 0.1 nM | 5.4 nM | 17.4 nM | 5.4 nM | 3.8 nM |  |  |  |  |  |
| C[C@H]1CCN1c1nc2c(c(-c3ccc(C4(N)CCC4)cc3)n1)CCC2 [Example 312, (S)-1-(4-(2-(2-methylazetidin-1-yl)-6,7-dihydro-5H-cyclopenta[d]pyrimidin-4-yl)phenyl)cyclobutan-1-amine] |  |  | 9.3 nM | 3.9 nM | 2.1 nM | 0.9 nM | 1.2 nM |  |  |  |
| C[C@H]1[C@H](O)CN1c1nc(-c2ccc3c(c2)OCC32CN(C)C(=O)N2)c2c(n1)C(F)(F)CC2 (stereo partly drawn) [Example 695, 6-[7,7-difluoro-2-[(2S,3R)-3-hydroxy-2-methyl-azetidin-1-yl]-5,6-dihydroeyelopenta[d]pyrimidin-4-yl]-1′-methyl-spiro[2H-benzofuran-3,4′-imidazolidine]-2′-one] | 0.5 nM | 16.2 nM | 213 nM | 27.1 nM | 10.3 nM |  |  |  |  |  |
| C[C@H]1[C@H](F)CN1c1nc(-c2ccc(C3(N)COC3)cc2)c2c(n1)C(F)(F)CC2 [Example 468, 3-(4-(7,7-difluoro-2-((2S,3R)-3-fluoro-2-methylazetidin-1-yl)-6,7-dihydro-5H-cyclopenta[d]pyrimidin-4-yl)phenyl)oxetan-3-amine] | 1.8 nM | 5.3 nM | 23.8 nM | 7.6 nM | 4.3 nM |  |  |  |  |  |
| C[C@H]1[C@H](O)CN1c1nc(-c2ccc3c(c2)OCC32NC(=O)N(C3COC3)C2=O)c2c(n1)C(F)(F)CC2 (stereo partly drawn) [Example 694, 6-[7,7-difluoro-2-[(2S,3R)-3-hydroxy-2-methyl-azetidin-1-yl]-5,6-dihydroeyelopenta[d]pyrimidin-4-yl]-3′-(oxetan-3-yl)spiro[2H-benzofuran-3,5′-imidazolidine]-2′,4′-dione] | 0.4 nM | 24.5 nM | 109 nM | 54.3 nM | 17.2 nM |  |  |  |  |  |
| C[C@H]1[C@H](O)CN1c1nc(-c2ccc3c(c2)COC[C@]32COC(=O)N2)c2c(n1)C(F)(F)CC2 (single isomer, unassigned) [Example 556] | 26.6 nM | 42.1 nM | > 500 nM | 210 nM | 201 nM |  |  |  |  |  |
| C[C@H]1[C@H](O)CN1c1nc(-c2ccc3c(c2)OC[C@@]32NC(=O)N(C)C2=O)c2c(n1)C(F)(F)CC2 (single isomer, unassigned) [Example 826] |  |  | 16.8 nM | 15.7 nM | 4.2 nM | 0.3 nM | 12.3 nM |  |  |  |
| C[C@H]1CCN1c1nc(-c2ccc(C3(N)COC3)cc2)c2c(n1)C(F)(F)CC2 [Example 160, (S)-3-(4-(7,7-difluoro-2-(2-methylazetidin-1-yl)-6,7-dihydro-5H-cyclopenta[d]pyrimidin-4-yl)phenyl)oxetan-3-amine] |  |  | 13.4 nM | 4.8 nM | 2 nM | 0.9 nM | 4.6 nM |  |  |  |
| C[C@H]1[C@H](O)CN1c1nc(-c2ccc3c(c2)OCCNC3)c2c(n1)C(F)(F)CC2 [Example 760, (2S,3R)-1-[7,7-difluoro-4-(2,3,4,5-tetrahydro-1,4-benzoxazepin-8-yl)-5,6-dihydrocyclopenta[d]pyrimidin-2-yl]-2-methyl-azetidin-3-ol] | 1.7 nM | 6 nM | 1.4 nM | 1.1 nM | 1.4 nM |  |  |  |  |  |
| C[C@H]1[C@H](O)CN1c1nc(-c2cc3c(c(S(N)(=O)=O)c2)OCC3)c2c(n1)C(F)(F)CC2 [Example 351, 5-(7,7-difluoro-2-((2S,3R)-3-hydroxy-2-methylazetidin-1-yl)-6,7-dihydro-5H-cyclopenta[d]pyrimidin-4-yl)-2,3-dihydrobenzofuran-7-sulfonamide] |  |  | 42.9 nM | 27.4 nM | 97.2 nM | 4.1 nM | 6.4 nM |  |  |  |
| C[C@H]1C[C@H](C)N1c1nc(-c2ccc(C3(N)COC3)cc2)c2c(n1)C(F)(F)CC2 [Example 504, 3-(4-(2-((2S,4S)-2,4-dimethylazetidin-1-yl)-7,7-difluoro-6,7-dihydro-5H-cyclopenta[d]pyrimidin-4-yl)phenyl)oxetan-3-amine] | 2.3 nM | 10.1 nM | 34.7 nM | 9.9 nM | 11.5 nM |  |  |  |  |  |
| CCN1C(=O)N[C@@]2(COc3cc(-c4nc(N5C[C@@H](O)[C@@H]5C)nc5c4CCC5(F)F)ccc32)C1=O (single isomer, unassigned) [Example 698] | 5.6 nM | 47.4 nM |  |  |  |  |  | 267 nM | 152 nM | 71.5 nM |
